Here are results for 38 molecules from patent publication US8962674B2 (Tokyo Institute of Technology, priority 2006, dated 2015).

Usually melting point stands for the temperature of the solid-liquid transition. `COc1cccc(/C=C/C(=O)CC(=O)/C=C/c2ccc(O)cc2)c1O` [CU249, (1E,6E)-1-(2-hydroxy-3-methoxyphenyl)-7-(4-hydroxyphenyl)hepta-1,6-diene-3,5-dione] came in with a melting point of 169 to 175 °C.

In turn, `COc1cc(/C=C/C(=O)CC(=O)/C=C/c2cc(O)ccc2OC)ccc1O` [CU178, (1E,6E)-1-(4-hydroxy-3-methoxyphenyl)-7-(5-hydroxy-2-methoxyphenyl)hepta-1,6-diene-3,5-dione] returned a melting point of 75 to 80 °C. For `O=C(/C=C/c1cccc2cc[nH]c12)CC(=O)/C=C/c1cccc2cc[nH]c12` [CU392, (1E,6E)-1,7-bis(1H-indol-7-yl)hepta-1,6-diene-3,5-dione] the value was 211 to 215 °C; for `COc1cc(/C=C/C(=O)CC(=O)/C=C/c2cc(Cl)cc(Cl)c2)ccc1O` [CU140, (1E,6E)-1-(3,5-dichlorophenyl)-7-(4-hydroxy-3-methoxyphenyl)hepta-1,6-diene-3,5-dione], 170 to 173 °C; for `COc1ccc(/C=C/C(=O)CC(=O)/C=C/c2ccc([N+](=O)[O-])c(OC)c2)cc1O` [CU049, (1E,6E)-1-(3-hydroxy-4-methoxyphenyl)-7-(3-methoxy-4-nitrophenyl)hepta-1,6-diene-3,5-dione], 196 to 199 °C. `O=C(/C=C/c1cc(O)ccc1Br)CC(=O)CCc1ccc(O)cc1` [CU549, (E)-1-(2-bromo-5-hydroxyphenyl)-7-(4-hydroxyphenyl)hept-1-ene-3,5-dione] showed a melting point of 161 to 165 °C. Turning to `O=C(/C=C/c1ccc(O)cc1)CC(=O)/C=C/c1ccccn1` [CU233, (1E,6E)-1-(4-hydroxyphenyl)-7-(pyridin-2-yl)hepta-1,6-diene-3,5-dione], the melting point fell in the range of 180 to 182 °C. For `O=C(/C=C/c1ccc(O)cc1)CC(=O)/C=C/c1cccc2ncccc12` [CU324, (1E,6E)-1-(4-hydroxyphenyl)-7-(quinolin-5-yl)hepta-1,6-diene-3,5-dione] the value was 272 to 275 °C; for `COCOc1c(O)cccc1/C=C/C(=O)CC(=O)/C=C/c1ccc(O)cc1` [CU247, (1E,6E)-1-[3-hydroxy-2-(methoxymethoxy)phenyl]-7-(4-hydroxyphenyl)hepta-1,6-diene-3,5-dione], 158 to 161 °C. In turn, `COc1ccc(/C=C/C(=O)CC(=O)/C=C/c2ccc(O)cc2Cl)cc1O` [CU130, (1E,6E)-1-(2-chloro-4-hydroxyphenyl)-7-(3-hydroxy-4-methoxyphenyl)hepta-1,6-diene-3,5-dione] displayed a melting point of 120 to 130 °C. `COc1cc(O)cc(/C=C/C(=O)CC(=O)/C=C/c2ccc(O)c(OC)c2)c1` [CU181, (1E,6E)-1-(3-hydroxy-5-methoxyphenyl)-7-(4-hydroxy-3-methoxyphenyl)hepta-1,6-diene-3,5-dione] came in with a melting point of 69 to 75 °C. Regarding `COc1ccc(/C=C/C(=O)CC(=O)/C=C/c2ccc(N(C)C)c(OC)c2)cc1O` [CU036, (1E,6E)-1-(4-dimethylamino-3-methoxyphenyl)-7-(3-hydroxy-4-methoxyphenyl)hepta-1,6-diene-3,5-dione], the melting point lay in the range of 65 to 70 °C. For `COc1ccc(/C=C/C(=O)CC(=O)/C=C/c2ncc[nH]2)cc1O` [CU151, (1E,6E)-1-(3-hydroxy-4-methoxyphenyl)-7-(1H-imidazol-2-yl)hepta-1,6-diene-3,5-dione] the value was 219 to 221 °C; for `COc1cc(/C=C/C(=O)CC(=O)/C=C/c2ccc(C)c(C)c2)ccc1O` [CU057, (1E,6E)-1-(3,4-dimethylphenyl)-7-(4-hydroxy-3-methoxyphenyl)hepta-1,6-diene-3,5-dione], 132 to 133 °C. The value for `CCN(CC)c1ccc(/C=C/C(=O)CC(=O)/C=C/c2ccc(O)cc2)c(OCc2c(F)cccc2Cl)c1` [CU450, (1E,6E)-1-[2-(2-chloro-6-fluorobenzyloxy)-4-diethylaminophenyl]-7-(4-hydroxyphenyl)hepta-1,6-diene-3,5-dione] was 172 to 175 °C; that for `O=C(/C=C/c1ccc(O)cc1)CC(=O)/C=C/c1cc(Cl)cc(Cl)c1` [CU201, (1E,6E)-1-(3,5-dichlorophenyl)-7-(4-hydroxyphenyl)hepta-1,6-diene-3,5-dione] was 165 to 172 °C; that for `COc1cc(/C=C/C(=O)CC(=O)/C=C/c2ccc(OC)c(O)c2)cc(OC)c1` [CU101, (1E,6E)-1-(3,5-dimethoxyphenyl)-7-(3-hydroxy-4-methoxyphenyl)hepta-1,6-diene-3,5-dione] was 187 to 193 °C.

As for `CCN(CC)c1ccc(/C=C/C(=O)CC(=O)/C=C/c2ccc(O)cc2)c(OCc2cccnc2)c1` [CU449, (1E,6E)-1-[4-diethylamino-2-(pyridin-3-ylmethoxy)phenyl]-7-(4-hydroxyphenyl)hepta-1,6-diene-3,5-dione], the melting point is 180 to 186 °C. For `CC(C)(C)OC(=O)N1CCc2ccc(/C=C/C(=O)CC(=O)/C=C/c3ccc(O)cc3)cc21` [CU419, (1E,6E)-1-[1-(tert-butoxycarbonyl)-indolin-6-yl]-7-(4-hydroxyphenyl)hepta-1,6-diene-3,5-dione], the melting point was 111 to 118 °C. For `COc1cc(O)ccc1/C=C/C(=O)CC(=O)/C=C/c1ccc(O)cc1` [CU083, (1E,6E)-1-(4-hydroxyphenyl)-7-(4-hydroxy-2-methoxyphenyl)hepta-1,6-diene-3,5-dione] the value was 105 to 110 °C. The value for `O=C(/C=C/c1ccc(O)cc1)CC(=O)/C=C/c1ccc(Br)cc1N1CCN(CCO)CC1` [CU502, (1E,6E)-1-{4-bromo-2-[4-(2-hydroxyethyl)piperazin-1-yl]phenyl}-7-(4-hydroxyphenyl)hepta-1,6-diene-3,5-dione] was 127 to 133 °C; that for `Nc1ccc(O)cc1/C=C/C(=O)CC(=O)/C=C/c1ccc(O)cc1` [CU488, (1E,6E)-1-(2-amino-5-hydroxyphenyl)-7-(4-hydroxyphenyl)hepta-1,6-diene-3,5-dione] was 186 to 192 °C.

`CN(C)c1ccc(/C=C/C(=O)CC(=O)CCc2ccc(O)cc2)c([N+](=O)[O-])c1` [CU523, (E)-1-(4-dimethylamino-2-nitrophenyl)-7-(4-hydroxyphenyl)hept-1-ene-3,5-dione] registered a melting point of 136 to 142 °C.

In the case of `COc1ccc(O)cc1CCC(=O)CC(=O)CCc1cc(O)ccc1OC` [CU512, 1,7-bis(5-hydroxy-2-methoxyphenyl)heptane-3,5-dione], the melting point lay within 163 to 169 °C.

As to `COc1cc(/C=C/C(=O)CC(=O)/C=C/c2ccc(Cl)cc2Cl)ccc1O` [CU144, (1E,6E)-1-(2,4-dichlorophenyl)-7-(4-hydroxy-3-methoxyphenyl)hepta-1,6-diene-3,5-dione], the melting point lay within 124 to 130 °C. `COc1cc(/C=C/C(=O)CC(=O)/C=C/c2ccc(Oc3ccccc3)cc2)ccc1O` [CU004, (1E,6E)-1-(4-hydroxy-3-methoxyphenyl)-7-(4-phenoxyphenyl)hepta-1,6-diene-3,5-dione] came in with a melting point of 45 to 46 °C. For `COc1ccc(/C=C/C(=O)CC(=O)/C=C/c2ccc3c(c2)OCCO3)cc1O` [CU210, (1E,6E)-1-(2,3-dihydrobenzo[1,4]dioxin-6-yl)-7-(3-hydroxy-4-methoxyphenyl)hepta-1,6-diene-3,5-dione] the value was 163 to 165 °C; for `CN1CCN(c2ccc(/C=C/C(=O)CC(=O)/C=C/c3ccc(N4CCN(C)CC4)cc3)cc2)CC1` [CU386, (1E,6E)-1,7-bis[4-(4-methylpiperazin-1-yl)phenyl]hepta-1,6-diene-3,5-dione], 212 to 217 °C.

With `CN(C)c1ccc(/C=C/C(=O)CC(=O)/C=C/c2ccc(N(C)C)cc2Cl)c(Cl)c1` [CU412, (1E,6E)-1,7-bis(2-chloro-4-dimethylaminophenyl)hepta-1,6-diene-3,5-dione], the melting point lay in the range of 238 to 241 °C. The value for `COc1ccc(/C=C/C(=O)CC(=O)/C=C/c2ccc(O)c(C)c2)cc1O` [CU052, (1E,6E)-1-(3-hydroxy-4-methoxyphenyl)-7-(4-hydroxy-3-methylphenyl)hepta-1,6-diene-3,5-dione] was 215 to 218 °C. `CS(=O)(=O)c1ccc(/C=C/C(=O)CC(=O)/C=C/c2ccc(O)cc2)cc1` [CU203, (1E,6E)-1-(4-hydroxyphenyl)-7-(4-methanesulfonylphenyl)hepta-1,6-diene-3,5-dione] had a melting point of 221 to 224 °C. With `COc1cc(/C=C/C(=O)CC(=O)/C=C/c2cc(O)cc(O)c2)ccc1O` [CU093, (1E,6E)-1-(3,5-dihydroxyphenyl)-7-(4-hydroxy-3-methoxyphenyl)hepta-1,6-diene-3,5-dione], the melting point lay in the range of 85 to 90 °C. Take `COc1cc(/C=C/C(=O)CC(=O)/C=C/c2cc3ccccc3n2C)ccc1O` [CU147, (1E,6E)-1-(4-hydroxy-3-methoxyphenyl)-7-(1-methyl-1H-indol-2-yl)hepta-1,6-diene-3,5-dione]: the melting point lay within 167 to 170 °C.

On to `Cc1ccc(-n2cccc2/C=C/C(=O)CC(=O)/C=C/c2cccn2-c2ccc(C)cc2)cc1` [CU389, (1E,6E)-1,7-bis[1-(4-methylphenyl)-1H-pyrrol-2-yl]hepta-1,6-diene-3,5-dione], for which the melting point lay within 151 to 155 °C.

The molecule `COc1ccc(/C=C/C(=O)CC(=O)/C=C/c2ccco2)cc1O` [CU211, (1E,6E)-1-(furan-2-yl)-7-(3-hydroxy-4-methoxyphenyl)hepta-1,6-diene-3,5-dione] displayed a melting point of 120 to 123 °C. The value for `COc1cc(Br)c(/C=C/C(=O)CC(=O)/C=C/c2ccc(O)cc2)cc1O` [CU543, (1E,6E)-1-(2-bromo-5-hydroxy-4-methoxyphenyl)-7-(4-hydroxyphenyl)hepta-1,6-diene-3,5-dione] was 224 to 229 °C; that for `COc1cc(/C=C/C(=O)CC(=O)/C=C/c2ccc(O)cc2)ccc1F` [CU137, (1E,6E)-1-(4-fluoro-3-methoxyphenyl)-7-(4-hydroxyphenyl)hepta-1,6-diene-3,5-dione] was 136 to 143 °C; that for `COc1cc(/C=C/C(=O)CC(=O)/C=C/c2ccc(O)cc2)c(Br)cc1O` [CU539, (1E,6E)-1-(2-bromo-4-hydroxy-5-methoxyphenyl)-7-(4-hydroxyphenyl)hepta-1,6-diene-3,5-dione] was 237 to 242 °C.
